In patent US8846698B2, “Pyrrolo[2,3-d]pyrimidine tropomysin-related kinase inhibitors” (Pfizer Limited, priority 2011, dated 2014):

Each molecule was assayed against TRKA (Homo sapiens (Human), UniProt P04629) (assay: Isolated TRK enzyme assay (HTRF KinEASE-TK), TRKA). Conditions: read-out: Trka enzyme (IC50).
Type: biochemical

Chain of TRKA (P04629 441-796): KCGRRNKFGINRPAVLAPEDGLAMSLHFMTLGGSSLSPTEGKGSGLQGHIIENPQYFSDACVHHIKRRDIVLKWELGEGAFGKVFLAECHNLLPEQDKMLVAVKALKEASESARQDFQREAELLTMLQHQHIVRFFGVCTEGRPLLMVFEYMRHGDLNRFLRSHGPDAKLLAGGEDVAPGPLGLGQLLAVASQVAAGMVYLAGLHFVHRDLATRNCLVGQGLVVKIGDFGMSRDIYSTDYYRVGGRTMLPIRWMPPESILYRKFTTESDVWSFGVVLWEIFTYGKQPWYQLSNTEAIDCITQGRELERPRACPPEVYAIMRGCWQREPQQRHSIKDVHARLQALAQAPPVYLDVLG

| Compound | IC50 |
| --- | --- |
| CC(C)n1cc(C(=O)c2cncc(NC(=O)Cn3cnc(Cl)c3Cl)c2)c2cncnc21 [Example 355, 2-(4,5-Dichloro-imidazol-1-yl)-N-[5-(7-isopropyl-7H-pyrrolo[2,3-d]pyrimidine-5-carbonyl)-pyridin-3-yl]-acetamide] | 302 nM |
| Cc1cc(C(F)F)n2nc(C(=O)Nc3cncc(C(=O)c4cn(C(C)C)c5ncncc45)c3)nc2n1 [Example 356, 7-Difluoromethyl-5-methyl-[1,2,4]triazolo[1,5-a]pyrimidine-2-carboxylic acid [5-(7-isopropyl-7H-pyrrolo[2,3-d]pyrimidine-5-carbonyl)-pyridin-3-yl]-amide] | 56.3 nM |
| Cc1nc(C)n(CC(=O)Nc2cncc(C(=O)c3cn(C(C)C)c4ncncc34)c2)n1 [Example 358, 2-(3,5-Dimethyl-1,2,4-triazol-1-yl)-N-[5-(7-isopropyl-7H-pyrrolo[2,3-d]pyrimidine-5-carbonyl)-pyridin-3-yl]-acetamide] | 9800 nM |
| Cc1nccn1CC(=O)Nc1cncc(C(=O)c2cn(C(C)C)c3ncncc23)c1 [Example 359, N-[5-(7-Isopropyl-7H-pyrrolo[2,3-d]pyrimidine-5-carbonyl)-pyridin-3-yl]-2-(2-methyl-imidazol-1-yl)-acetamide] | 9800 nM |
| CC(C)n1cc(C(=O)c2cncc(NC(=O)Cc3nnc(O)c4ccccc34)c2)c2cncnc21 [Example 361, 2-(4-Hydroxy-phthalazin-1-yl)-N-[5-(7-isopropyl-7H-pyrrolo[2,3-d]pyrimidine-5-carbonyl)-pyridin-3-yl]-acetamide] | 7640 nM |
| CCc1nn2cc(CC(=O)Nc3cncc(C(=O)c4cn(C(C)C)c5ncncc45)c3)nc2s1 [Example 367, 2-(2-Ethyl-imidazo[2,1-b]-1,3,4-thiadiazol-6-yl)-N-[5-(7-isopropyl-7H-pyrrolo[2,3-d]pyrimidine-5-carbonyl)-pyridin-3-yl]-acetamide] | 5640 nM |
| Cc1cn2cc(CC(=O)Nc3cncc(C(=O)c4cn(C(C)C)c5ncncc45)c3)nc2s1 [Example 368, N-[5-(7-Isopropyl-7H-pyrrolo[2,3-d]pyrimidine-5-carbonyl)-pyridin-3-yl]-2-(2-methyl-imidazo[2,1-b]thiazol-6-yl)-acetamide] | 753 nM |
| CC(C)n1cc(C(=O)c2cncc(NC(=O)Cn3ccnc3)c2)c2cncnc21 [Example 372, 2-Imidazol-1-yl-N-[5-(7-isopropyl-7H-pyrrolo[2,3-d]pyrimidine-5-carbonyl)-pyridin-3-yl]-acetamide] | 9800 nM |
| Cc1csc2nc(CC(=O)Nc3cncc(C(=O)c4cn(C(C)C)c5ncncc45)c3)cn12 [Example 373, N-[5-(7-Isopropyl-7H-pyrrolo[2,3-d]pyrimidine-5-carbonyl)-pyridin-3-yl]-2-(3-methyl-imidazo[2,1-b]thiazol-6-yl)-acetamide] | 813 nM |
| CC(C)n1cc(C(=O)c2cncc(NC(=O)Cc3cnccn3)c2)c2cncnc21 [Example 376, N-[5-(7-Isopropyl-7H-pyrrolo[2,3-d]pyrimidine-5-carbonyl)-pyridin-3-yl]-2-pyrazin-2-yl-acetamide] | 5100 nM |
| CC(C)n1cc(C(=O)c2cncc(NC(=O)Cn3nnnc3-c3ccccc3)c2)c2cncnc21 [Example 378, N-[5-(7-Isopropyl-7H-pyrrolo[2,3-d]pyrimidine-5-carbonyl)-pyridin-3-yl]-2-(5-phenyl-tetrazol-1-yl)-acetamide] | 716 nM |
| Cc1nonc1C(=O)Nc1cncc(C(=O)c2cn(C(C)C)c3ncncc23)c1 [Example 381, 4-Methyl-furazan-3-carboxylic acid [5-(7-isopropyl-7H-pyrrolo[2,3-d]pyrimidine-5-carbonyl)-pyridin-3-yl]-amide] | 2780 nM |
| CC(C)n1cc(C(=O)c2cncc(NC(=O)c3cc4ccccc4[nH]3)c2)c2cncnc21 [Example 383, 1H-Indole-2-carboxylic acid [5-(7-isopropyl-7H-pyrrolo[2,3-d]pyrimidine-5-carbonyl)-pyridin-3-yl]-amide] | 130 nM |
| Cc1nc(C(F)(F)F)c(C(=O)Nc2cncc(C(=O)c3cn(C(C)C)c4ncncc34)c2)s1 [Example 384, 2-Methyl-4-trifluoromethyl-thiazole-5-carboxylic acid [5-(7-isopropyl-7H-pyrrolo[2,3-d]pyrimidine-5-carbonyl)-pyridin-3-yl]-amide] | 4770 nM |
| CC(C)n1cc(C(=O)c2cncc(NC(=O)c3ncoc3C3CC3)c2)c2cncnc21 [Example 385, 5-Cyclopropyl-oxazole-4-carboxylic acid [5-(7-isopropyl-7H-pyrrolo[2,3-d]pyrimidine-5-carbonyl)-pyridin-3-yl]-amide] | 81.6 nM |
| Cc1ccnc(C(=O)Nc2cncc(C(=O)c3cn(C(C)C)c4ncncc34)c2)c1 [Example 388, 4-Methyl-pyridine-2-carboxylic acid[5-(7-isopropyl-7H-pyrrolo[2,3-d]pyrimidine-5-carbonyl)-pyridin-3-yl]-amide] | 165 nM |
| CC(C)n1cc(C(=O)c2cncc(NC(=O)c3c[nH]nc3C3CCC3)c2)c2cncnc21 [Example 389, 3-Cyclobutyl-1H-pyrazole-4-carboxylic acid [5-(7-isopropyl-7H-pyrrolo[2,3-d]pyrimidine-5-carbonyl)-pyridin-3-yl]-amide] | 84.3 nM |

Further molecules by falling IC50, results first:

| IC50 | Compound |
| --- | --- |
| 9800 nM | CC(C)n1cc(C(=O)c2cncc(NC(=O)Cc3cnc4ncnn4c3)c2)c2cncnc21 [Example 375, N-[5-(7-Isopropyl-7H-pyrrolo[2,3-d]pyrimidine-5-carbonyl)-pyridin-3-yl]-2-[1,2,4]triazolo[1,5-a]pyrimidin-6-yl-acetamide] |
| 9800 nM | CC(C)n1cc(C(=O)c2cncc(NC(=O)c3cccnn3)c2)c2cncnc21 [Example 386, Pyridazine-3-carboxylic acid [5-(7-isopropyl-7H-pyrrolo[2,3-d]pyrimidine-5-carbonyl)-pyridin-3-yl]-amide] |
| 6880 nM | Cc1n[nH]c(C(F)(F)F)c1C(=O)Nc1cncc(C(=O)c2cn(C(C)C)c3ncncc23)c1 [Example 387, 3-Methyl-5-trifluoromethyl-1H-pyrazole-4-carboxylic acid [5-(7-isopropyl-7H-pyrrolo[2,3-d]pyrimidine-5-carbonyl)-pyridin-3-yl]-amide] |
| 5040 nM | Cc1cccc(-c2nnnn2CC(=O)Nc2cncc(C(=O)c3cn(C(C)C)c4ncncc34)c2)c1 [Example 364, N-[5-(7-Isopropyl-7H-pyrrolo[2,3-d]pyrimidine-5-carbonyl)-pyridin-3-yl]-2-(5-m-tolyl-tetrazol-1-yl)-acetamide] |
| 3540 nM | CC(C)n1cc(C(=O)c2cncc(NC(=O)Cn3ccnc3-c3ccccc3)c2)c2cncnc21 [Example 370, N-[5-(7-Isopropyl-7H-pyrrolo[2,3-d]pyrimidine-5-carbonyl)-pyridin-3-yl]-2-(2-phenyl-imidazol-1-yl)-acetamide] |
| 3000 nM | Cc1nc(Cl)nn1CC(=O)Nc1cncc(C(=O)c2cn(C(C)C)c3ncncc23)c1 [Example 369, 2-(3-Chloro-5-methyl-1,2,4-triazol-1-yl)-N-[5-(7-isopropyl-7H-pyrrolo[2,3-d]pyrimidine-5-carbonyl)-pyridin-3-yl]-acetamide] |
| 2630 nM | CC(C)n1cc(C(=O)c2cncc(NC(=O)Cn3cc(-c4cccc(O)c4)nn3)c2)c2cncnc21 [Example 377, 2-[4-(3-Hydroxy-phenyl)-1,2,3-triazol-1-yl]-N-[5-(7-isopropyl-7H-pyrrolo[2,3-d]pyrimidine-5-carbonyl)-pyridin-3-yl]-acetamide] |
| 2040 nM | CC(C)n1cc(C(=O)c2cncc(NC(=O)Cn3cnc(-c4ccc(F)cc4)c3)c2)c2cncnc21 [Example 365, 2-[4-(4-Fluoro-phenyl)-imidazol-1-yl]-N-[5-(7-isopropyl-7H-pyrrolo[2,3-d]pyrimidine-5-carbonyl)-pyridin-3-yl]-acetamide] |
| 1910 nM | Cc1sc2nc(CC(=O)Nc3cncc(C(=O)c4cn(C(C)C)c5ncncc45)c3)cn2c1C [Example 362, 2-(2,3-Dimethyl-imidazo[2,1-b]thiazol-6-yl)-N-[5-(7-isopropyl-7H-pyrrolo[2,3-d]pyrimidine-5-carbonyl)-pyridin-3-yl]-acetamide] |
| 1030 nM | CC(C)n1cc(C(=O)c2cncc(NC(=O)Cn3cc(C4(O)CCCC4)nn3)c2)c2cncnc21 [Example 363, 2-[4-(1-Hydroxy-cyclopentyl)-1,2,3-triazol-1-yl]-N-[5-(7-isopropyl-7H-pyrrolo[2,3-d]pyrimidine-5-carbonyl)-pyridin-3-yl]-acetamide] |
| 956 nM | CC(C)n1cc(C(=O)c2cncc(NC(=O)Cc3cn4ccsc4n3)c2)c2cncnc21 [Example 360, 2-Imidazo[2,1-b]thiazol-6-yl-N-[5-(7-isopropyl-7H-pyrrolo[2,3-d]pyrimidine-5-carbonyl)-pyridin-3-yl]-acetamide] |
| 422 nM | CC(C)n1cc(C(=O)c2cncc(NC(=O)c3nccc4occc34)c2)c2cncnc21 [Example 380, Furo[3,2-c]pyridine-4-carboxylic acid [5-(7-isopropyl-7H-pyrrolo[2,3-d]pyrimidine-5-carbonyl)-pyridin-3-yl]-amide] |
| 354 nM | CC(C)c1ccnn1CC(=O)Nc1cncc(C(=O)c2cn(C(C)C)c3ncncc23)c1 [Example 366, 2-(5-Isopropyl-pyrazol-1-yl)-N-[5-(7-isopropyl-7H-pyrrolo[2,3-d]pyrimidine-5-carbonyl)-pyridin-3-yl]-acetamide] |
| 224 nM | CC(C)n1cc(C(=O)c2cncc(NC(=O)Cc3ccn(-c4ccc(O)cc4)c3)c2)c2cncnc21 [Example 374, 2-[1-(4-Hydroxy-phenyl)-1H-pyrrol-3-yl]-N-[5-(7-isopropyl-7H-pyrrolo[2,3-d]pyrimidine-5-carbonyl)-pyridin-3-yl]-acetamide] |
| 97 nM | CC(C)n1cc(C(=O)c2cncc(NC(=O)Cc3cn4cc(Cl)sc4n3)c2)c2cncnc21 [Example 371, 2-(2-Chloro-imidazo[2,1-b]thiazol-6-yl)-N-[5-(7-isopropyl-7H-pyrrolo[2,3-d]pyrimidine-5-carbonyl)-pyridin-3-yl]-acetamide] |
| 45.7 nM | CC(C)n1cc(C(=O)c2cncc(NC(=O)c3nn(C)c4ccccc34)c2)c2cncnc21 [Example 382, 1-Methyl-1H-indazole-3-carboxylic acid [5-(7-isopropyl-7H-pyrrolo[2,3-d]pyrimidine-5-carbonyl)-pyridin-3-yl]-amide] |
